IC50 data for five compounds are collected here from BindingDB's records for doi:10.1080/14756360701654894 (National Tsing Hua University, 2008).

As usually defined, the IC50 is the point on the concentration scale where inhibition reaches its midpoint.

The target of test [1] is T1, Polyphenol oxidase 2 (Agaricus bisporus, UniProt O42713).
T1 sequence (O42713 whole entry): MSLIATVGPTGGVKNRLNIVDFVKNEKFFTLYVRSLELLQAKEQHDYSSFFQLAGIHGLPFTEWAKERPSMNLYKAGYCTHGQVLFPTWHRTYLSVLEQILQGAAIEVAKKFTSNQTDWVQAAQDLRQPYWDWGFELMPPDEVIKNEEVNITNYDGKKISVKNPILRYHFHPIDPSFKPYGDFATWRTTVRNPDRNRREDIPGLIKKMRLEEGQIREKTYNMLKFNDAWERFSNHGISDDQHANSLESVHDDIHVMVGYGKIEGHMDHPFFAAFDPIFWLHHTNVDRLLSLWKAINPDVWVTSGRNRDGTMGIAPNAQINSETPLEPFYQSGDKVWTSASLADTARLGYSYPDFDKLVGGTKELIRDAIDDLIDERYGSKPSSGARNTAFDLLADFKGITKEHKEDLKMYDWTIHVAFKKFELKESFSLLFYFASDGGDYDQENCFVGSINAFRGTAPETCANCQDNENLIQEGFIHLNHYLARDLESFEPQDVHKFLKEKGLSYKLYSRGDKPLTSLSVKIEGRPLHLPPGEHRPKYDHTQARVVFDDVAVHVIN
The experiment in a line: Enzyme Assay. To be noted: pH 6.8; 25 °C.

Test [2] addresses T2, Tyrosinase (Mus musculus, UniProt P11344).
T2 sequence (P11344 whole entry): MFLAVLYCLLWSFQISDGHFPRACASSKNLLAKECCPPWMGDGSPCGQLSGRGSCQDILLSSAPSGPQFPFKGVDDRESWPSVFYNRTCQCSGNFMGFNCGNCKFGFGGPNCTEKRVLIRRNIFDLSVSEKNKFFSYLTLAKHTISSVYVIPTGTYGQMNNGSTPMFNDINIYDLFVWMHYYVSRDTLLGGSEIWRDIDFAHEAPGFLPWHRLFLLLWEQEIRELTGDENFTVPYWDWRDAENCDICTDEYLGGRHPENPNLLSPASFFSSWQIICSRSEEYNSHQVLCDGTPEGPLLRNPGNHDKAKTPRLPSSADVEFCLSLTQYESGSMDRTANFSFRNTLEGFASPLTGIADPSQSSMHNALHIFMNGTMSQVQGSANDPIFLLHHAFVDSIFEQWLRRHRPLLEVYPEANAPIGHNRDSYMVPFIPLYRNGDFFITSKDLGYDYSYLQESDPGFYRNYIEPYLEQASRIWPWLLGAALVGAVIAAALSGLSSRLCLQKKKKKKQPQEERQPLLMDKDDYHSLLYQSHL
In words: Enzyme Assay. To be noted: pH 6.8; 25 °C.

Turning to `Oc1ccc(O)cc1`, the IC50 is 87.6 µM in test [1] and 188 µM in test [2]. As for `OCC1OC(Oc2ccc(O)cc2)C(O)C(O)C1O` (centres undefined) [2-Hydroxymethyl-6-(4-hydroxy-phenoxy)-tetrahydro-pyran-3,4,5-triol], in test [1], half-maximal inhibition (IC50) was put at 296 µM.

Take `COc1ccc(/C=C2/SC(=S)N(CCC(=O)O)C2=O)cc1` [3-[(5E)-5-[(4-methoxyphenyl)methylidene]-4-oxo-2-sulfanylidene-3-thiazolidinyl]propanoic acid]: the IC50 was 894 µM in test [1] and 2390 µM in test [2].

Regarding `OCc1ccc(O)cc1` [4-Hydroxybenzyl alcohol], the results for the 50% inhibitory concentration (IC50) in test [1] and in test [2] were 350 µM and 650 µM, respectively. Consider `COc1cc(-c2nc(S(=O)(=O)c3ccc(C)cc3)c(N3CCOCC3)o2)cc(OC)c1OC` [4-[4-(4-methylphenyl)sulfonyl-2-(3,4,5-trimethoxyphenyl)-5-oxazolyl]morpholine], for which the IC50 in test [1] stood at 402 µM; in test [2], 952 µM.
